Data published in patent US20250188095A1, “DISUBSTITUTED OCTAHYDROPYRROLO[3,4-c]PYRROLYL METHYL KETONE DERIVATIVE AND USE THEREOF” (JIANGSU NHWA PHARMACEUTICAL CO., LTD, priority 2022, published 2025).

How the values were obtained:
OX2 receptor = OX2 receptor (Homo sapiens (Human), UniProt O43614); assay: In vitro activity test (Cisbio IP-one, CHO-K1-OX2 cells, antagonism of EC80 agonist); type: cell-based
Procedure: (§1) (1) Preparation of a reaction buffer (1×Stimulation buffer) required for the experiment: The 5×Stimulation buffer and ddH2O in the Cisbio IP-one kit were diluted in a ratio of 1:4 for later use.
(§2) (2) Compound preparation: The compound was diluted with DMSO to obtain a 5 mM stock solution, followed by a 3.16-fold dilution to obtain 10 gradients, and then the prepared compound was diluted with the Stimulation buffer to the corresponding concentrations (4×) for later use.
(§3) (3) Cell preparation: CHO-K1-OX1 and CHO-K1-OX2 cells on the culture dish were digested with trypsin, and the cells were washed off with culture medium and collected into 5 mL centrifuge tubes. The cells were centrifuged at 1000 rpm for 5 min, and the supernatant was discarded. 3 mL of PBS was added, and the mixture was gently pipetted to be mixed well. The cells were centrifuged again at 1000 rpm for 5 min, and the supernatant was discarded. The cells were resuspended in 1×Stimulation buffer and counted using a Countstar cell counter, and the cell density was adjusted to 1.71×10^6 cells/mL for later use.
(§4) (4) Cell addition: The cell suspensions were added to assay plates at 7 μL/well (i.e., about 12,000 cells/well).
(§5) (5) Compound addition: The compound diluted with the Stimulation buffer was added to the assay plates described above at 3.5 μL/well.
(§6) (6) Reaction and incubation: After gentle shaking, the assay plates were incubated at 37° C. for 30 min.
(§7) (7) EC80 agonist addition: 4×Orexin A (OX1 receptor) and 4×Orexin 2 receptor agonist (OX2 receptor) solutions of EC80 were added at 3.5 μL/well.
(§8) (8) Reaction and incubation: After gentle shaking, the assay plates were incubated at 37° C. for 45 min.
(§9) (9) Detection reagent addition: IP1-d2 and Anti-IP1 cryptate were separately diluted in a 1:20 ratio with the Lysis & detection buffer in the Cisbio IP-one detection kit, and the diluted IP1-d2 and Anti-IP1 cryptate described above were added to the assay plates, each at 3 μL/well. After shaking, the assay plates were left to stand at room temperature for 60 min.
(§10) (10) Experimental readings: The plate was read on Envision, readings from the 665 nm and 615 nm channels were taken, and the ratio of 665 nm/615 nm readings was calculated.
(§11) Based on the antagonistic effect values of the compound sample at different concentration test points, antagonistic curves of the compound sample against the orexin receptors were fitted using GraphPad Prism software, and the IC50 was calculated.

OX1 receptor = OX1 receptor (Homo sapiens (Human), UniProt O43613); assay: In vitro activity test (Cisbio IP-one, CHO-K1-OX1 cells, antagonism of EC80 Orexin A); type: cell-based
OX1 receptor, sequence (O43613 whole entry): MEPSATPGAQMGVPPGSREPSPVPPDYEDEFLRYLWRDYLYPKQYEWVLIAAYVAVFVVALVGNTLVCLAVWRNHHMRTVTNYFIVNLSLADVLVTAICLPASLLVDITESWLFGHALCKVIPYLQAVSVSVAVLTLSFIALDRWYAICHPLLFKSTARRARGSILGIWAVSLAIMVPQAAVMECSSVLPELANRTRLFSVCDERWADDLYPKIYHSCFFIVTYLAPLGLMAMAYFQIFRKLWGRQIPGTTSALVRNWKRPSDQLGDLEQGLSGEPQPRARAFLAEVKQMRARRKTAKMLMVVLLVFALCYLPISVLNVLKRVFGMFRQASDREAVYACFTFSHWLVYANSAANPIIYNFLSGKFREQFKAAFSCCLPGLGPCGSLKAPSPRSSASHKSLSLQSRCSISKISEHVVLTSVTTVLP
Procedure: as §1, §2, §3, §4, §5, §6, §7, §8, §9, §10, §11

OX2 receptor, sequence (O43614 whole entry): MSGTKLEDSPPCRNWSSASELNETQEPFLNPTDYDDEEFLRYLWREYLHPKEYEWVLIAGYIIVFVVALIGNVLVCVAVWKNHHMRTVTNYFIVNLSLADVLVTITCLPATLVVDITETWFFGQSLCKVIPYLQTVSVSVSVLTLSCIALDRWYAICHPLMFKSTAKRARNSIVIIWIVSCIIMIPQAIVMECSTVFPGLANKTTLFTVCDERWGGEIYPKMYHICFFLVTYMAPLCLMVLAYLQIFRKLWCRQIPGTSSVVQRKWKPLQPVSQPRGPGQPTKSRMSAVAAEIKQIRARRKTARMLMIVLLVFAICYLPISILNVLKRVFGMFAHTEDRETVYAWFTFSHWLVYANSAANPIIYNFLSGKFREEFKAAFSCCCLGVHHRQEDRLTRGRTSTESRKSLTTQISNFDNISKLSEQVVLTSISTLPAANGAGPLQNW

| IC50 (OX2 receptor) | IC50 (OX1 receptor) | Compound |
| --- | --- | --- |
| < 100 nM | > 1000 nM | Cc1cc(C)nc(N2C[C@H]3CN(C(=O)c4c(-c5ncccn5)cn5ccccc45)C[C@H]3C2)n1 [Example 21, ((3aR,6aS)-5-(4,6-dimethylpyrimidin-2-yl)hexahydropyrrolo[3,4-c]pyrrol-2(1H)-yl)(2-(pyrimidin-2-yl)indolizin-1-yl)methanone] |
| 100 to 300 nM | > 1000 nM | Cc1cc(C)nc(N2C[C@H]3CN(C(=O)c4c(-c5ccccc5)cn5ccccc45)C[C@H]3C2)n1 [Example 1, ((3aR,6aS)-5-(4,6-dimethylpyrimidin-2-yl)hexahydropyrrolo[3,4-c]pyrrol-2(1H)-yl)(2-phenylindolizin-1-yl)methanone] |
| 100 to 300 nM | > 1000 nM | Cc1cc(C)nc(N2C[C@H]3CN(C(=O)c4c(-c5ccccn5)cn5ccccc45)C[C@H]3C2)n1 [Example 2, ((3aR,6aS)-5-(4,6-dimethylpyrimidin-2-yl)hexahydropyrrolo[3,4-c]pyrrol-2(1H)-yl)(2-(pyridin-2-yl)indolizin-1-yl)methanone] |
| 100 to 300 nM | > 1000 nM | Cc1cc(C)nc(N2C[C@H]3CN(C(=O)c4c(-c5ncccc5C(F)(F)F)cn5ccccc45)C[C@H]3C2)n1 [Example 11, ((3aR,6aS)-5-(4,6-dimethylpyrimidin-2-yl)hexahydropyrrolo[3,4-c]pyrrol-2(1H)-yl)(2-(3-(trifluoromethyl)pyridin-2-yl)indolizin-1-yl)methanone] |
| 100 to 300 nM | > 1000 nM | Cc1cc(C)nc(N2C[C@H]3CN(C(=O)c4c(-c5ccccc5)nn5ccncc45)C[C@H]3C2)n1 [Example 13, ((3aR,6aS)-5-(4,6-dimethylpyrimidin-2-yl)hexahydropyrrolo[3,4-c]pyrrol-2(1H)-yl)(2-phenylpyrazolo[1,5-a]pyrazin-3-yl)methanone] |
| < 100 nM | > 1000 nM | Cc1cc(C)nc(N2C[C@H]3CN(C(=O)c4c(-c5ccccn5)nn5ccccc45)C[C@H]3C2)n1 [Example 6, ((3aR,6aS)-5-(4,6-dimethylpyrimidin-2-yl)hexahydropyrrolo[3,4-c]pyrrol-2(1H)-yl)(2-(pyridin-2-yl)pyrazolo[1,5-a]pyridin-3-yl)methanone] |
| < 100 nM | > 1000 nM | Cc1cc(C)nc(N2C[C@H]3CN(C(=O)c4c(-c5ccccn5)cn5cc(F)ccc45)C[C@H]3C2)n1 [Example 19, ((3aR,6aS)-5-(4,6-dimethylpyrimidin-2-yl)hexahydropyrrolo[3,4-c]pyrrol-2(1H)-yl)(6-fluoro-2-(pyridin-2-yl)indolizin-1-yl)methanone] |
| < 100 nM | > 1000 nM | Cc1cc(C)nc(N2C[C@H]3CN(C(=O)c4c(-c5ccccc5F)cn5ccccc45)C[C@H]3C2)n1 [Example 15, ((3aR,6aS)-5-(4,6-dimethylpyrimidin-2-yl)hexahydropyrrolo[3,4-c]pyrrol-2(1H)-yl)(2-(2-fluorophenyl)indolizin-1-yl)methanone] |
| 100 to 300 nM | > 1000 nM | Cc1cc(C)nc(N2C[C@H]3CN(C(=O)c4c(-c5ccccc5)nn5ncccc45)C[C@H]3C2)n1 [Example 14, ((3aR,6aS)-5-(4,6-dimethylpyrimidin-2-yl)hexahydropyrrolo[3,4-c]pyrrol-2(1H)-yl)(2-phenylpyrazolo[1,5-b]pyridazin-3-yl)methanone] |
| 100 to 300 nM | > 1000 nM | Cc1cc(C)nc(N2C[C@H]3CN(C(=O)c4c(-c5ccccc5)nn5cccnc45)C[C@H]3C2)n1 [Example 12, ((3aR,6aS)-5-(4,6-dimethylpyrimidin-2-yl)hexahydropyrrolo[3,4-c]pyrrol-2(1H)-yl)(2-phenylpyrazolo[1,5-a]pyrimidin-3-yl)methanone] |

Further lines, the molecule ahead of its results:

| Compound | IC50 (OX2 receptor) | IC50 (OX1 receptor) |
| --- | --- | --- |
| Cc1cc(C)nc(N2C[C@H]3CN(C(=O)c4c(-c5ncco5)cn5ccccc45)C[C@H]3C2)n1 [Example 20, ((3aR,6aS)-5-(4,6-dimethylpyrimidin-2-yl)hexahydropyrrolo[3,4-c]pyrrol-2(1H)-yl)(2-(oxazol-2-yl)indolizin-1-yl)methanone] | < 100 nM | > 1000 nM |
| Cc1nc(N2C[C@H]3CN(C(=O)c4c(-c5ccccn5)cn5ccccc45)C[C@H]3C2)nc(C)c1F [Example 24, ((3aR,6aS)-5-(5-fluoro-4,6-dimethylpyrimidin-2-yl)hexahydropyrrolo [3,4-c]pyrrol-2(1H)-yl)(2-(pyridin-2-yl)indolizin-1-yl)methanone] | < 100 nM | > 1000 nM |
| Cc1cc(C)nc(N2C[C@H]3CN(C(=O)c4c(-c5ccsc5)cn5ccccc45)C[C@H]3C2)n1 [Example 17, ((3aR,6aS)-5-(4,6-dimethylpyrimidin-2-yl)hexahydropyrrolo[3,4-c]pyrrol-2(1H)-yl)(2-(thiophen-3-yl)indolizin-1-yl)methanone] | < 100 nM | – |
| Cc1nc(N2C[C@H]3CN(C(=O)c4c(-c5ncccc5F)cn5ccccc45)C[C@H]3C2)nc2c1CCC2 [Example 26, (2-(3-fluoropyridin-2-yl)indolizin-1-yl)((3aR,6aS)-5-(4-methyl-6,7-dihydro-5H-cyclopenta[d]pyrimidin-2-yl)hexahydropyrrolo[3,4-c]pyrrol-2(1H)-yl)methanone] | < 100 nM | > 1000 nM |
| Cc1cc(C)nc(N2C[C@H]3CN(C(=O)c4c(-c5ccc(C)s5)cn5ccccc45)C[C@H]3C2)n1 [Example 4, ((3aR,6aS)-5-(4,6-dimethylpyrimidin-2-yl)hexahydropyrrolo[3,4-c]pyrrol-2(1H)-yl)(2-(5-methylthiophen-2-yl)indolizin-1-yl)methanone] | < 100 nM | > 1000 nM |
| O=C(c1c(-c2ncccc2F)cn2ccccc12)N1C[C@@H]2CN(c3cnc4ccccc4n3)C[C@@H]2C1 [Example 10, (2-(3-Fluoropyridin-2-yl)indolizin-1-yl)((3aR,6aS)-5-(quinoxalin-2-yl)hexahydropyrrolo[3,4-c]pyrrol-2(1H)-yl)methanone] | 100 to 300 nM | > 1000 nM |
| Cc1cc(C)nc(N2C[C@H]3CN(C(=O)c4c(-c5ncccc5F)cn5cc(F)ccc45)C[C@H]3C2)n1 [Example 18, ((3aR,6aS)-5-(4,6-dimethylpyrimidin-2-yl)hexahydropyrrolo[3,4-c]pyrrol-2(1H)-yl)(6-fluoro-2-(3-fluoropyridin-2-yl)indolizin-1-yl)methanone] | < 100 nM | > 1000 nM |
| Cc1nc(N2C[C@H]3CN(C(=O)c4c(-c5ncccc5F)cn5ccccc45)C[C@H]3C2)nc2ccoc12 [Example 7, (2-(3-fluoropyridin-2-yl)indolizin-1-yl)((3aR,6aS)-5-(4-methylfuro [3,2-d]pyrimidin-2-yl)hexahydropyrrolo[3,4-c]pyrrol-2(1H)-yl)methanone] | < 100 nM | > 1000 nM |
| Cc1nc(N2C[C@H]3CN(C(=O)c4c(-c5ncccc5F)cn5ccccc45)C[C@H]3C2)nn2cccc12 [Example 8, (2-(3-Fluoropyridin-2-yl)indolizin-1-yl)((3aR,6aS)-5-(4-methylpyrrolo [2,1-f][1,2,4]triazin-2-yl)hexahydropyrrolo[3,4-c]pyrrol-2(1H)-yl)methanone] | < 100 nM | > 1000 nM |
| Cc1cc(C)nc(N2C[C@H]3CN(C(=O)c4c(-c5nccs5)cn5ccccc45)C[C@H]3C2)n1 [Example 9, ((3aR,6aS)-5-(4,6-dimethylpyrimidin-2-yl)hexahydropyrrolo[3,4-c]pyrrol-2(1H)-yl)(2-(thiazol-2-yl)indolizin-1-yl)methanone] | 100 to 300 nM | > 1000 nM |
| Cc1cc(C)nc(N2C[C@H]3CN(C(=O)c4c(-c5cccs5)cn5ccccc45)C[C@H]3C2)n1 [Example 28] | < 100 nM | > 1000 nM |
